Common to all, as to assay type: in vivo
In test [1] the test system is Carrot plants. Description: β-carotene content of harvested carrots after azoxystrobin spraying. The following applies: conventional treatment plus Amistar Opti (azoxystrobin and chlorothalonil). Here is the method: Carrot plants were grown and the carrots were harvested after spraying twice with a conventional fungicide treatment (chlorothalonil, copper hydroxide, iminoctazine polyoxin and tolclofos-methyl) and with the conventional treatment plus Amistar Opti™ (azoxystrobin and chlorothalonil). Some of the harvested carrots were analysed immediately on harvest for β-carotene while others were stored for a week after harvest before analysis. […] It seems therefore that azoxystrobin has a clear effect on β-carotene levels in mature carrots.

Test [2] has as its system Tomato plants (Variety: Sunroad). As to the kind of experiment: Lycopene content of harvested tomatoes after azoxystrobin spraying. The following applies: for lycopene content, single replicate: stored at room temperature, listed as Az-treated; for lycopene content, single replicate / lycopene content, mean of 3 replicates: conventional fungicide treatment plus azoxystrobin. Here is the method:
Tomato plants (Variety: Sunroad) were grown and the tomatoes were harvested after spraying with a conventional fungicide treatment and with the conventional treatment plus azoxystrobin. The harvested tomatoes were stored at room temperature and tested for lycopene concentration 2, 5, 9 and 12 days after sample harvesting (three tomatoes were chosen at random from each box on each day of testing).
When this study was repeated using similar conditions but on a smaller scale, a marked rise in lycopene content was not observed (control: 11.7 mg lycopene/100 g tomato; azoxystrobin treated: 10.7 mg lycopene/100 g tomato).

The test system of test [3] is eggplant. Description: Anthocyanin levels in eggplant after azoxystrobin treatment. The note with it: egg plant. Here is the method:
(§1) Similar work was carried out to look at isoflavone levels in soybean and anthocyanin levels in eggplant and strawberry on treatment of the plants with azoxystrobin. […] In addition, it also raised anthocyanin levels in strawberry by 50% (control: 200-220 mg anthocyanin/100 g strawberry; azoxystrobin treated: 210-420 mg anthocyanin/100 g strawberry), although it seemed to have no effect on anthocyanin levels in egg plant.

Test [4] concerns soybean. Description: Isoflavone levels in soybean after azoxystrobin treatment. Here is the method:
as §1

Test [5] concerns Tea plants (Japanese green tea, Yabukita). Description: Polyphenol content of tea leaves after pre-harvest spraying. Further details: Total catechin (g): unit not given here. The following applies: autumn; for Total catechin (%) when compared to untreated / % compared to untreated (total catechin): untreated = 100%. Here is the method:
Tea plants (Japanese green tea, Yabukita) were grown in 5 m^2 plots, and the leaves were harvested. The harvested leaves were tested for polyphenols. Fourteen days before harvest, the tea plants were sprayed with a commercial formulation of emamectin benzoate (Affirm™), difenoconazole (Score™), methidathion (Supracid™), azoxystrobin (Amistar™) or a mixture of lufenuron and thiamethoxam. An otherwise identical set of tea plants were left untreated.
The experiment was repeated using either azoxystrobin or trifloxystrobin.
Both trials detailed above were carried out in the autumn. […] It is proposed that, when photosynthesis is active (e.g. in the summer season), addition of azoxystrobin may not enhance photosynthesis further and thus may not be able to further raise catechin levels.

Test [6] relates to strawberry. Description: Anthocyanin levels in strawberry after azoxystrobin treatment. On the procedure:
as §1

Setting [7] is: 12 days after sample harvesting.
Where [8] appears, read: Table 1 trial, commercial formulation sprayed 14 days before harvest.

Values joined by “and” are separate entries in the source; they are usually repeats but may differ in a detail not shown here. Equal values may be shown once.

These results are taken from patent US20090298859A1, “METHOD FOR TREATING PLANTS” (SYNGENTA CROP PROTECTION, INC., priority 2006, published 2009).

On to `CO/C=C(/C(=O)OC)c1ccccc1Oc1cc(Oc2ccccc2C#N)ncn1` [Azoxystrobin, azoxystrobin], for which, in test [1] (carrots analysed immediately on harvest, sprayed twice), the “β-carotene levels compared with conventional fungicide regime” value is “did not show an increase”. In test [1] (carrots stored for one week after harvest, conventional treatment 6.59), the β-carotene content is 7.48 mg β-carotene/100 g carrot. Besides, in test [2] (2 days after sample harvesting), the “lycopene content, single replicate” value was 5.69 mg lycopene/100 g tomato and 5.67 mg lycopene/100 g tomato and 5.14 mg lycopene/100 g tomato; the “lycopene content, mean of 3 replicates” value is 5.50 mg lycopene/100 g tomato. In test [2] (5 days after sample harvesting), the “lycopene content, single replicate” value is 8.36 mg lycopene/100 g tomato and 8.87 mg lycopene/100 g tomato and 6.01 mg lycopene/100 g tomato; the “lycopene content, mean of 3 replicates” value is reported as 7.75 mg lycopene/100 g tomato. In addition, in test [2] (9 days after sample harvesting), the “lycopene content, single replicate” value was 9.78 mg lycopene/100 g tomato and 9.14 mg lycopene/100 g tomato and 8.32 mg lycopene/100 g tomato; the “lycopene content, mean of 3 replicates” value is reported as 9.08 mg lycopene/100 g tomato. In test [2] (setting [7]), the “lycopene content, single replicate” value was 8.27 mg lycopene/100 g tomato and 8.88 mg lycopene/100 g tomato and 9.24 mg lycopene/100 g tomato; the “lycopene content, mean of 3 replicates” value was found to be 8.79 mg lycopene/100 g tomato. In addition, the lycopene content in test [2] (repeat study, similar conditions, smaller scale, control 11.7) is recorded as 10.7 mg lycopene/100 g tomato. In addition, the “effect on anthocyanin levels” value in test [3] is recorded as “no effect”. Besides, in test [4] (control 120), the isoflavone content is reported as 130 mg isoflavone/100 g soybean. Moreover, in test [4] (soybean, versus control), the “increase of isoflavone levels” value came out at 8%. Also, in test [5] (setting [8]), the Epicatechin is on record as 930 mg polyphenol/100 g tea leaves, the Epicatechin gallate is on record as 960 mg polyphenol/100 g tea leaves, the Epigalocatechin is 4800 mg polyphenol/100 g tea leaves and the Epigalocatechin gallate is 6200 mg polyphenol/100 g tea leaves. Further, the “Total catechin (%) when compared to untreated” value (from here on “Total catechin (%) when”) in test [5] (Table 1 trial) is given as 113%. Further, in test [5] (Table 2 repeat trial), the Epicatechin is listed as 24.5 mg polyphenol/g tea leaves, the Epicatechin gallate is reported as 31.1 mg polyphenol/g tea leaves, the Epigalocatechin is listed as 178.8 mg polyphenol/g tea leaves and the Epigalocatechin gallate is 160.6 mg polyphenol/g tea leaves. In test [5] (Table 2 repeat trial), the Total catechin is given as 395.0 mg polyphenol/g tea leaves and the “% compared to untreated (total catechin)” value amounted to 107%. Besides, in test [6] (control 200-220), the anthocyanin content is given as 210-420 mg anthocyanin/100 g strawberry. Further, the “rise of anthocyanin levels” value in test [6] (strawberry, versus control) turned out to be 50%.
Take `CC1COC(Cn2cncn2)(c2ccc(Oc3ccc(Cl)cc3)cc2Cl)O1` (stereo not shown) [DFZ, difenoconazole]: in test [5] (setting [8]), the Epicatechin was 950 mg polyphenol/100 g tea leaves, the Epicatechin gallate is 970 mg polyphenol/100 g tea leaves, the Epigalocatechin is given as 4300 mg polyphenol/100 g tea leaves and the Epigalocatechin gallate was 5900 mg polyphenol/100 g tea leaves. The “Total catechin (%) when” value in test [5] (Table 1 trial) is on record as 106%.
For `COc1nn(CSP(=S)(OC)OC)c(=O)s1` [MTH, methidathion], in test [5] (setting [8]), the Epicatechin is reported as 1100 mg polyphenol/100 g tea leaves, the Epicatechin gallate is 1100 mg polyphenol/100 g tea leaves, the Epigalocatechin is on record as 4500 mg polyphenol/100 g tea leaves and the Epigalocatechin gallate is recorded as 5700 mg polyphenol/100 g tea leaves. The “Total catechin (%) when” value in test [5] (Table 1 trial) was determined as 109%.
With `CON=C(C(=O)OC)c1ccccc1CON=C(C)c1cccc(C(F)(F)F)c1` [Trifloxystrobin, trifloxystrobin], in test [5] (Table 2 repeat trial), the Epicatechin is recorded as 23.8 mg polyphenol/g tea leaves, the Epicatechin gallate is listed as 32.4 mg polyphenol/g tea leaves, the Epigalocatechin is on record as 190.1 mg polyphenol/g tea leaves and the Epigalocatechin gallate is recorded as 163.0 mg polyphenol/g tea leaves. Besides, in test [5] (Table 2 repeat trial), the Total catechin was 409.3 mg polyphenol/g tea leaves and the “% compared to untreated (total catechin)” value was 110%.
Regarding emamectin benzoate, in test [5] (setting [8]), the Epicatechin is listed as 960 mg polyphenol/100 g tea leaves, the Epicatechin gallate is 890 mg polyphenol/100 g tea leaves, the Epigalocatechin was 4600 mg polyphenol/100 g tea leaves and the Epigalocatechin gallate was 5600 mg polyphenol/100 g tea leaves. Besides, in test [5] (Table 1 trial, sprayed 14 days before harvest, table title: mg polyphenol/100 g tea leaves), the “Total catechin (g)” value worked out at 12050. In addition, the “Total catechin (%) when” value in test [5] (Table 1 trial) worked out at 106%.
